Laboratory results: patent US8410178B2, “CIS 3,4-dihydroxy-2-(3-methylbutanoyl)-5-(3-methylbutyl)-4-(4-methylpentanoyl)cyclopent-2-en-1-derivatives, substantially enantiomerically pure compositions and methods” (KinDex Therapeutics, LLC, priority 2010, dated 2013)

Assays:
3T3-L1 adipocytes = assay: Lipogenesis in 3T3-L1 adipocytes (Oil Red O staining); assay type: cell-based, Murine
Method: The effect of (+)-KDT501 on lipogenesis was evaluated in 3T3-L1 adipocytes.
Murine 3T3-L1 preadipocytes (ATCC, Rockville, Md.) were maintained in DMEM (Invitrogen, Rockville, Md.) supplemented with 10% fetal bovine serum (FBS; ATCC). As preadipocytes, 3T3-L1 cells have a fibroblastic appearance. They replicate in culture until they form a confluent monolayer, after which cell-cell contact triggers G0/G1 growth arrest. Subsequent stimulation with 3-isobutyl-1-methylxanthane, dexamethasone, and high does of insulin for two days prompts the cells to undergo post-confluent mitotic clonal expansion, exit the cell cycle, and begin to express adipocyte-specific genes. Approximately five days after induction of differentiation, the cells display the characteristic lipid-filled adipocyte phenotype.
Cells were seeded at an initial density of approximately […] in 24-well plates and allowed to grow for 2 days to confluence. […]
Microscopic evaluation was performed at day 0 and every two days throughout testing to assess preadipocyte differentiation to adipocyte morphology. Intracellular lipid was quantified with Oil Red O staining. […] 150 μL of sample was transferred to a 96 well plate and absorbance was measured at 530 nm using a plate reader (Thermo Electron Corp.). […]

[1] = system: Zucker diabetic fatty (ZDF) rats; assay: Glucose and triglyceride levels in a rat diabetes model; assay type: in vivo
Method: 64 six-week-old male Zucker diabetic fatty (ZDF) rats with glucose levels of 175-300 mg/dL were randomized and divided into eight dosing groups: 1) vehicle only (0.5% methylcellulose (w/v), 0.2% Tween 80 (w/v); negative control), 2) (+)-KDT501 25 mg/kg, 3) (+)-KDT501 50 mg/kg, 4) (+)-KDT501 100 mg/kg, 5) (+)-KDT501 200 mg/kg, 6) metformin 200 mg/kg (positive control), 7) metformin 200 mg/kg and (+)-KDT501 100 mg/kg, and 8) pioglitazone 30 mg/kg (positive control). Drugs were administered orally twice a day for 33 days.
Animals were weighed at randomization and once per week thereafter, with administration dosages calculated based on the most recent body weight measurements. Blood samples were collected by tail bleed three days prior to randomization, at randomization, and at days 15 and 29 after the start of treatment. These blood samples were used to perform whole blood glucose evaluations using a glucometer, as well as to measure blood triglyceride levels. Body composition was tested by qNMR on days 2 and 29 after the start of treatment. An oral glucose tolerance test (OGTT) was performed on days 31 and 32 after the start of treatment. Rats underwent an overnight fast prior to OGTT, and tail bleeds for glucose and insulin were performed pre-glucose bolus and at 15, 30, 60, 90, and 120 minutes post-glucose bolus. The glucose bolus was 2 g dextrose/kg of body weight. On day 33, a cardiac puncture was performed for PK analysis.

GPR120 = target: T1, GPR120 (Homo sapiens, UniProt Q5NUL3); assay: GPR120 activity, intracellular calcium response in CHO-K1/GPR120/Gα15 cells; assay type: cell-based; details: CHO-K1/GPR120/Gα15 cells; calcium response; unit inferred; read-out: GPR120 agonistic activity EC50
T1 sequence (Q5NUL3 1-361): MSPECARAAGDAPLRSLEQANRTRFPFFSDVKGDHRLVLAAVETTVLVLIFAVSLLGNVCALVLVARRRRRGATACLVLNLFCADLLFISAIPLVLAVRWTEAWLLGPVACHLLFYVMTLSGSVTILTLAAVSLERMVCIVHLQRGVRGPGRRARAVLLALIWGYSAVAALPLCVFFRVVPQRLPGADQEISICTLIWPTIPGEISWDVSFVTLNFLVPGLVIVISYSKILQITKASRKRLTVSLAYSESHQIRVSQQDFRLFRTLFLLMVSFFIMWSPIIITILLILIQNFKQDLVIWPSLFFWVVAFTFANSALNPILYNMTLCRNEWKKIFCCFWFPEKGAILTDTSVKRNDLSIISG
Method: GPR120 activity was measured by intracellular calcium response. CHO-K1/GPR120/Gα15 cells were regularly passaged to maintain optimal cell health and cultured in Ham's F12 supplemented with 10% fetal bovine serum, 200 μg/mL zeocin, and 100 μg/mL hygromycin. Cells were seeded in a 384-well black-wall, clear-bottom plate at a density of 20,000 cell per well in 20 μL of growth medium 18 hours prior to the start of the experiment, and maintained at 37° C./5% CO2. Cells were loaded with calcium-4, and baseline fluorescence readings were obtained from 1 second to 20 seconds using a fluorescent imaging plate reader (FLIPR). At 20 seconds, (+)-KDT501 (5× final concentration) was added to the reading plate, and the fluorescence signal was monitored for 100 seconds (21 seconds to 120 seconds). α-linolenic acid (LA), eicosapentaenoic acid (EPA), and docosahexaenoic acid (DHA) were used as controls. Data acquisition and analysis was performed using ScreenWorks (version 3.1) and exported to Excel. The average fluorescence value for the first 20 seconds was calculated as the baseline reading. The relative fluorescent unit (ΔRFU) intensity values were calculated with the maximal fluorescent units (21 s to 120 s), subtracting the baseline reading. Data analysis wizard written by GenScript was used to analyze EC50. Dose response curves of antagonist were fitted using the GraphPad Prism 4 four parameter logistic equation Y=Bottom+(Top−Bottom)/(1+10^((LogIC50−X)*HillSlope)), where X is the logarithm of concentration and Y is response.

## CC(C)CCC(=O)[C@@]1(O)C(O)=C(C(=O)CC(C)C)C(=O)[C@@H]1CCC(C)C.[K] [(+)-KDT501, (+)-(4S,5R)-3,4-dihydroxy-2-(3-methylbutanoyl)-5-(3-methylbutyl)-4-(4-methylpentanoyl)cyclopent-2-en-1-one potassium salt]
3T3-L1 adipocytes; 3T3-L1 adipocytes, 6.25, 12.5, and 25 μM
  lipogenesis (intracellular lipid, Oil Red O): increased lipogenesis in 3T3-L1 adipocytes in a statistically significant manner
3T3-L1 adipocytes; 3T3-L1 murine fibroblast model
  adipogenesis: induce both lipogenesis and adipogenesis in a dose-dependent manner
[1]; 200 mg/kg orally twice a day
  whole blood glucose levels: significant decrease
[1]; 200 mg/kg orally twice a day, days 15 and 29
  triglyceride levels: significant decrease
[1]; 25, 50, or 100 mg/kg orally twice a day
  whole blood glucose levels: nearly the same as those observed in negative control rats
GPR120
  EC50: 30.3 µM
